Assay results: patent US20240197699A1, “BE[…] FOR USE IN THERAPY” (MOLECULAR RESEARCH PHARMACT S.R.L., priority 2021, published 2024)

How the values were obtained:
[1] = molecular target: T1, AdipoR1 (Mus musculus, UniProt Q91VH1); assay: AMPK activation by the compound in HT22 cells under AdipoR1 knock-down (siAdipoR1); assay type: cell-based; details: HT22 cells transfected with siAdipoR1, compound 25 nM, 30 minutes
T1 construct: siAdipoR1, siAdipoR2 were prepared in DMEM to break down the expression of AdipoR1 and AdipoR2, respectively; endogenous in cells; host or cells: HT22 mouse neuronal cells
T1 sequence (Q91VH1 1-375): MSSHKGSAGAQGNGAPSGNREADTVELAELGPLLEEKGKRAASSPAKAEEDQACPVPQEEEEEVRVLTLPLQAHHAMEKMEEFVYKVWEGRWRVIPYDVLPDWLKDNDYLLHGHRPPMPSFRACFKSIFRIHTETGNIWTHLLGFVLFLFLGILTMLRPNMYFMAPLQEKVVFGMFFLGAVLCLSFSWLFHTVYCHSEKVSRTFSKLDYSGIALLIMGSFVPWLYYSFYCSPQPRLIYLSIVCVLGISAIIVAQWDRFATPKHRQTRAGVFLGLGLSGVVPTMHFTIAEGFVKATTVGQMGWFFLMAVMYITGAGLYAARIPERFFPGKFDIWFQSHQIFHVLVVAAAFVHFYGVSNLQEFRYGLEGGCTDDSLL
Source text: A rabbit adiponectin anti-receptor 1 polyclonal antibody (AdipoR1)(Abcam, Cambridge, MA, USA), a rabbit adiponectin anti-receptor 2 polyclonal antibody (AdipoR2) (Boster Biological Technology, USA), an anti-phospho-AMPK (pAMPK) rabbit polyclonal antibody (Cell Signaling Technology, Ltd.), an anti-AMPK rabbit polyclonal antibody (Cell Signaling Technology, Ltd.) and an HRP conjugated mouse monoclonal anti-§ (beta)-actin antibody (Cell Signaling Technology, Ltd.) were used as primary antibodies after being suitably diluted. An HRP conjugated goat anti-rabbit IgG antibody (Dako, Glostrup, Denmark) was used as secondary antibody.
Under conditions of 5% CO2 at 37° C., mouse neuronal cells (HT22) are maintained and expanded in a Dulbecco-modified high-glucose Eagle medium (DMEM, GIBCO, Invitrogen, Life Technologies Hong Kong Ltd.), containing 10% fetal bovine serum (FBS, HiClone, Cytiva Co., Ltd.) and 1% v/v penicillin/streptomycin (Life Technologies Hong Kong Ltd.).
SiRNA scramble (non-targeting RNA), siAdipoR1 and siAdipoR2 were purchased from Santa Cruz Biotechnology. siAdipoR1, siAdipoR2 were prepared in DMEM to break down the expression of AdipoR1 and AdipoR2, respectively. […]
The extraction of each soluble fraction and the quantification of the proteins in each soluble fraction by western blot analysis were performed according to procedures similar to section 1.4 of Experiment 1.

[2] = test system: AMPK, the downstream intracellular mediator of adiponectin receptors; assay: Concentration-dependent activation of AMPK in HT22 neuronal cells (western blot, pAMPK/AMPK); assay type: cell-based, mouse; details: HT22 cells, 0, 10, 25 nM, 30 minutes, serum-free DMEM
Description: A rabbit anti-phospho-AMPK polyclonal antibody (pAMPK) (Cell Signaling Technology, Ltd.), a rabbit anti-AMPK polyclonal antibody (Cell Signaling Technology, Ltd.) and an HRP conjugated mouse monoclonal anti-β-actin antibody (Cell Signaling Technology, Ltd.) were used as primary antibodies after being suitably diluted. An HRP-labeled rabbit IgG goat antibody (Dako, Glostrup, Denmark) was used as a secondary antibody.
Under conditions of 5% CO2 at 37° C., mouse neuronal cells (HT22) were maintained and expanded in a Dulbecco-modified high-glucose Eagle medium (DMEM, GIBCO, Invitrogen, Life Technologies Hong Kong Ltd.), containing 10% fetal bovine serum (FBS, HiClone, Cytiva Co., Ltd.) and 1% v/v penicillin/streptomycin (Life Technologies Hong Kong Ltd.).
The compound was dissolved in DMSO (Sigmaldrich Co Ltd.) at a concentration of 10 mM as a stock. […]
Each cell sample was homogenized in ice-cold lysis buffer (Cell Signaling Technology, USA), containing a cocktail of protease inhibitors, by ultrasonic homogenizer before being centrifuged at 12,000×g, 4° C. for 15 min. […] The protein concentration of each fraction was measured using the BioRad Protein Assay reagent (Bio-Rad Laboratories, Inc.). […] The densitometric analysis of the bands detected by the chemiluminescent reaction was quantified by the Image J software (NIH: National Institutes of Health). […]

[3] = test system: NSC-34 cells; assay: Viability of NSC-34 neuronal cells under high glucose (hyperglycemia-induced apoptosis); assay type: cell-based; details: pre-treatment 25 nM, then 100 mM glucose
Description: A high glucose level is the cause of neuronal apoptosis leading to diabetic neuropathy. To examine whether SS-SRGR-(+7) can protect neurons from the hyperglycemic condition, neuronal cells in different glucose concentrations (0, 25, 50, 100 mM) were grown. […] NSC-34 neurons were then pre-treated with or without SS-SRGR-(+7)(25 nM) prior to incubation with 100 mM glucose.

## CC1C2Cc3ccc(O)cc3C1(C)CCN2CCC(C(=O)N(C)C)(c1ccccc1)c1ccccc1 (stereo not drawn) [SS-SRGR-(+7), 4-(8-hydroxy-6,11-dimethyl-1,4,5,6-tetrahydro-2,6-methane-3-benzazocin-3(2H)-yl)-N,N-dimethyl-2,2-diphenylbutanamide]
[1]
  SS-SRGR-(+7)-induced AMPK activation under Adipo-R1 knock-down compared to siCtrl-transfected HT22 cells: significantly reduced
[2]
  amounts of pAMPK proteins (pAMPK/AMPK ratio, densitometry): increase significantly in a concentration-dependent manner
[3]
  Cell viability of pretreated NSC34 cells versus vehicle-pretreated NSC34: significantly higher
